Activity calls are given as the source filed them. For most assays here, no stated cut-off is given here; in the data, actives have a measured EC50 and inactives only a lower limit.
Experiments:
[1] = luciferase reporter signal suppression in cells – H4 neuroglioma cells, luminescence, dose response (AID 1990); format: functional, cell-based
[2] = Luminescence Cell-Based Dose Response HTS to Identify Inhibitors of 5'UTR Stem-Loop Driven Prion Protein mRNA Translation in H4 Neuroglioblastoma Cells. [Related pubchem assays: 1827 (Project Summary), 1813 (Primary HTS)]; format: functional
[3] = alpha-synuclein stem-loop luciferase translation blockers – H4 neuroglioma cells, luminescence, confirmation (AID 1988); format: functional, cell-based
[4] = reduction of Shn3 3'UTR-driven luciferase in osteoblasts – cell-based, Clone20 osteoblasts, firefly luciferase, cherry-picked, dose response (AID 624132); format: functional;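 further: firefly luciferase luminescence from reporter carrying the Shn3 3'UTR in osteoblasts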
[5] = loss of viability in HepG2 cells – cell-based, CellTiter-Glo, cherry-picked, cytotoxicity control for Shn3 inhibitor project, dose response (AID 624134); format: functional
[6] = biological target: T1, Heat shock factor protein 1 (Mus musculus, UniProt P38532); assay: decrease of HSF1-responsive luciferase luminescence – cell-based, NIH3T3, dose retest, confirmation (AID 2382); format: functional;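 further: NIH3T3 fibroblasts with HSF1-driven luciferase reporter stressed by proteasome inhibitor MG132; luminescence from HSF1-driven luciferase expression after 8 hours of MG132 stress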
T1 sequence (P38532 whole entry): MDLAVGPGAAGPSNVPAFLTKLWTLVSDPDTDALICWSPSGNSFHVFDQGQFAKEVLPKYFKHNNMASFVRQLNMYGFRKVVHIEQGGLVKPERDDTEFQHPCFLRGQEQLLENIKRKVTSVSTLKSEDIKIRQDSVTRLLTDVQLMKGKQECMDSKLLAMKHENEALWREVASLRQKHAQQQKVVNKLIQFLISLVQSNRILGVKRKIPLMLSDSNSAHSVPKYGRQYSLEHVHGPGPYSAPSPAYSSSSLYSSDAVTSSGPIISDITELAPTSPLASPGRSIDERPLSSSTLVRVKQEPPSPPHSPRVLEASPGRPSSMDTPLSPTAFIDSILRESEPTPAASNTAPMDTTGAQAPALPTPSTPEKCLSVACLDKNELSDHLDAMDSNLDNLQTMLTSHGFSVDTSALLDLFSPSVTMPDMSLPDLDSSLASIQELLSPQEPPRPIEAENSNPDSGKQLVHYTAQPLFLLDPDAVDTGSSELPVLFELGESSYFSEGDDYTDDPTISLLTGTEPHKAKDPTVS

cells [7] = format: functional, cell-based
cells [8] = format: functional, cell-based; remark: listed apart in the source
[9] = viability of uninfected HEp-2 cells – cell-based, HTS, cytotoxicity control for RSV inhibitor project, dose response (AID 2410); format: functional; conditions: human respiratory syncytial virus
INS1 = assay: INS-1E survival protection against cytokine death – cell-based, luminescence, retest, dose response (AID 449756); format: functional; conditions: Rattus norvegicus, INS1;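 further: cell death triggered by IL-1 beta plus TNF-alpha plus IFN-gamma mixture; protective hits raise ATP signal compared with cytokine alone wells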
Cytochrome P450 2C9 = Cytochrome P450 2C9 (Homo sapiens, UniProt P11712)
Streptokinase A = biological target: T2, Streptokinase A (Streptococcus pyogenes serotype M1, UniProt P10520); assay: viability-normalized secreted streptokinase activity reduction – plasminogen activation absorbance, OD405, dose response (AID 1914); format: functional, Streptococcus pyogenes M1 GAS;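 further: secreted streptokinase activity via plasminogen activation per viability signal from cell pellet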
T2 sequence (P10520 whole entry): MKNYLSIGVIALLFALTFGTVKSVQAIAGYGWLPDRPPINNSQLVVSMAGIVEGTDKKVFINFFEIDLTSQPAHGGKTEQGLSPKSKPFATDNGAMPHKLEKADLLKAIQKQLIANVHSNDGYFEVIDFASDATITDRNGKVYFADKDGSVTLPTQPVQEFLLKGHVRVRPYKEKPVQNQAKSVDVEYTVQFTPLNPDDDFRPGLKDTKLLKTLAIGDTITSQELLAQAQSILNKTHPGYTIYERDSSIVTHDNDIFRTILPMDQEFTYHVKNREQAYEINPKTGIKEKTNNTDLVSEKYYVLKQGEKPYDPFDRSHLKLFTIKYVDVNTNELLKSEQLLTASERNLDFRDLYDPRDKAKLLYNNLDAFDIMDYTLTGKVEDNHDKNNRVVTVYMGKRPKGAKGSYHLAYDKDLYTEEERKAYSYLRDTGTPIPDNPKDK

Streptococcus = assay: GAS UMAA2166 growth inhibition – luminescence, BacTiterGlo, counter-screen for streptokinase expression inhibitor project, dose response (AID 1915); format: functional, organism-based;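 further: potency for reduction of bacterial viability or growth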
[10] = non-specific 3'UTR reporter inhibition in Clone20-Shn3RL – cell-based, Renilla luciferase, cherry-picked, counter-screen for Shn3 inhibitor project, dose response (AID 624133); format: functional
Paired box protein Pax-8 = Paired box protein Pax-8 (Homo sapiens, UniProt Q06710); assay: PAX8 transcriptional activity inhibition in RMG-I – RMG-I cells, luciferase, cherry-pick, dose response (AID 687027); format: functional, cell-based;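 further: luciferase reporter driven by Pax8 target thyroperoxidase promoter measured by SteadyGlo luminescence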
Chain of Paired box protein Pax-8 (Q06710 whole entry): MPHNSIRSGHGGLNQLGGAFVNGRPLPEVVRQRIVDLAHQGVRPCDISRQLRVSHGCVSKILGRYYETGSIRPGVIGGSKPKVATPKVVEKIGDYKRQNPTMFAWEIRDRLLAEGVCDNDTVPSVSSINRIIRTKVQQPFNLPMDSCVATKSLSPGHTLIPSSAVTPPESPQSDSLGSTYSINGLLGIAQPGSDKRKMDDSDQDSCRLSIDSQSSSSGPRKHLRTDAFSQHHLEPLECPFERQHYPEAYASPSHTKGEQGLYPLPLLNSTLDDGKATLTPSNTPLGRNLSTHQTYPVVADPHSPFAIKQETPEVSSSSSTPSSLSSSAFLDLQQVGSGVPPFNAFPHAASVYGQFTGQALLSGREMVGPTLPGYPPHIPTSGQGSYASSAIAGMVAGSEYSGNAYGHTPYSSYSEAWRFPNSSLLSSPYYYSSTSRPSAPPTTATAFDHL

Chain of Cytochrome P450 2C9 (P11712 whole entry): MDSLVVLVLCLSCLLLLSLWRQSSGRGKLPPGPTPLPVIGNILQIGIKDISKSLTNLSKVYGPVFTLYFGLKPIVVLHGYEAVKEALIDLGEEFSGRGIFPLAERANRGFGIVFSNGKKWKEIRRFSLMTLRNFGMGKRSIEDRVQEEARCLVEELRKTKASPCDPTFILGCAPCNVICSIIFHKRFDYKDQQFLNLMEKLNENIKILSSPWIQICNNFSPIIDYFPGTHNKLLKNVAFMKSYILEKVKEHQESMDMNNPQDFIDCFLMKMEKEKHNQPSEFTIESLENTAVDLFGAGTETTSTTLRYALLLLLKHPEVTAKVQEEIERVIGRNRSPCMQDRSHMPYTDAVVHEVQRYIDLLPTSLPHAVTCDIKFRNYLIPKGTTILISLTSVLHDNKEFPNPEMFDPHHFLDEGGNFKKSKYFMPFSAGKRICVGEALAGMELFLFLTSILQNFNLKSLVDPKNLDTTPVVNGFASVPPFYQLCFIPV

## Cc1ccc(S(=O)(=O)c2cc3c(=O)n4cccc(C)c4nc3n(Cc3ccncc3)c2=N)cc1
[1]
  EC50: > 120 µM (not active)
[2]
  EC50: > 120 µM (not active)
[3]
  EC50: > 120 µM (not active)

## O=C(Nc1ccc(Cl)c(Cl)c1)c1cccc(S(=O)(=O)NCc2cccnc2)c1
[4]
  AC50: 5.39 µM (active)
[5]
  AC50: 6.59 µM (active)

## O=C(COC(=O)Cc1ccsc1)NCC12CC3CC(CC(C3)C1)C2
[6]
  EC50: > 195 µM (not active)

## CCn1nc(NS(=O)(=O)c2ccc(NC(C)=O)cc2)c2cc3cccc(C)c3nc21
Cells [7]
  EC50: > 350 µM (not active)
Cells [8]
  EC50: > 350 µM (not active)

## Cc1cccc2sc(NC(=O)C3CSC4(C)CCC(=O)N34)nc12 (stereo not given)
[1]
  EC50: > 120 µM (not active)
[2]
  EC50: > 120 µM (not active)
[3]
  EC50: > 120 µM (not active)

## Cc1ccc(S(=O)(=O)N(C)C)cc1NC(=O)COC(=O)/C(=C/c1ccc(F)cc1)c1cccs1
[9]
  CC50: 29.7 µM (active)

## O=C(Nc1ccccn1)C1CCN(c2ncnc3c2nc2n3CCCCC2)CC1
[9]
  CC50: 18.5 µM (active)

## CN(C)c1ccc(S(=O)(=O)NCC(=O)OCC(=O)Nc2cc(Cl)cc(Cl)c2)cc1[N+](=O)[O-]
Cells [7]
  EC50: > 350 µM (not active)
Cells [8]
  EC50: > 350 µM (not active)

## Cc1ccc(/C=C/C2=NN(Cc3ccccc3)C(=O)CC2)cc1
[9]
  CC50: 15 µM (active)

## CC(=O)Nc1ccc(CN2CCC(CO)(CCOc3ccccc3)CC2)cc1
[6]
  EC50: > 195 µM (not active)

## Cc1cccc2[nH]c(CN(C)C(=O)C3CCC(=O)N(C4CC4)C3)nc12 (stereo not given)
Cells [7]
  EC50: > 350 µM (not active)
Cells [8]
  EC50: > 350 µM (not active)

## CC(=O)c1cccc(NS(=O)(=O)c2ccc(N/C=C/C(=O)c3ccc(F)cc3)cc2)c1
INS1
  AC50: 4.36 µM (active)

## COc1ccccc1NC(=O)CN(C)S(=O)(=O)c1cccc2cccnc12
Cells [7]
  EC50: > 350 µM (not active)
Cells [8]
  EC50: > 350 µM (not active)

## CCN(CC)C(=O)c1cc2cc([N+](=O)[O-])ccc2s1
[6]
  EC50: > 195 µM (not active)
Cytochrome P450 2C9
  AC50: 17.8 µM (inconclusive)

## CC(C)(C)c1csc(NNC(=O)c2ccc(Br)cc2)n1
Cells [7]
  EC50: 21 µM (active)
Streptokinase A
  EC50: > 150 µM (not active)
Cells [8]
  EC50: > 350 µM (not active)
Streptococcus
  EC50: > 150 µM (not active)

## COc1cccc(N2CCN(CC(=O)Nc3ccc(SC(F)F)cc3)CC2)c1
[1]
  EC50: > 120 µM (not active)
[2]
  EC50: > 120 µM (not active)
[3]
  EC50: > 120 µM (not active)

## Cc1ccc(F)cc1NC(=O)CSc1nc(Nc2ccccc2)nc(N2CCOCC2)n1
[1]
  EC50: 14.8 µM (active)
[2]
  EC50: > 120 µM (not active)
[3]
  EC50: 15.6 µM (active)

## Cc1ccccc1OCC(=O)Nc1ccc(N2CCN(C)CC2)c(Cl)c1
Cells [7]
  EC50: > 350 µM (not active)
Cells [8]
  EC50: > 350 µM (not active)

## CC(=O)c1cccc(Nc2nc(-c3ccccc3)cs2)c1
[9]
  CC50: 21.2 µM (active)

## OCc1nn2c(c1Br)NC(c1ccccc1)CC2C(F)(F)F (stereo not given)
[6]
  EC50: > 195 µM (not active)

## COc1cccc(C(=O)CN2C(=O)C(C)(C)Oc3ccc(C(=O)N4CCOCC4)cc32)c1
Cells [7]
  EC50: > 350 µM (not active)
Cells [8]
  EC50: > 350 µM (not active)

## CCOc1cc2sc(N3CCC(C(=O)NCCCN4CCCC4=O)CC3)nc2cc1Br
[9]
  CC50: 19.8 µM (active)

## COc1ccc(C2(C)NC(=O)N(CC(=O)Nc3ccc4c(c3)OCO4)C2=O)cc1OC (stereo not given)
[1]
  EC50: > 120 µM (not active)
[2]
  EC50: > 120 µM (not active)
[3]
  EC50: > 120 µM (not active)

## CCc1noc(C)c1C(=O)Oc1ccc(N(C)S(=O)(=O)c2ccccc2)cc1
[9]
  CC50: 26.2 µM (active)

## O=C1C=C(c2ccnc3cc(Cl)ccc23)C[C@@H](c2ccc3c(c2)OCO3)C1
[4]
  AC50: 1.36 µM (active)
[5]
  AC50: 27.6 µM (active)
[10]
  AC50: 0.312 µM (active)

## CCOC(=O)c1oc2ccccc2c1NC(=O)CN1CCN(C)CC1
[1]
  EC50: 10.9 µM (active)
[2]
  EC50: 17.6 µM (active)
[3]
  EC50: 7 µM (active)

## COc1ccc(-c2nnc(NC(=O)c3ccc4c(c3)OCCO4)o2)cc1
[1]
  EC50: > 120 µM (not active)
[2]
  EC50: > 120 µM (not active)
[3]
  EC50: > 120 µM (not active)

## COC(=O)c1sccc1S(=O)(=O)Nc1ccc(N2CCCCC2)cc1
INS1
  AC50: 29 µM (active)

## O=C(NCc1cccnc1)Nc1ccc([N+](=O)[O-])cc1
INS1
  AC50: 11.8 µM (active)

## COc1ccc(OC)c(Nc2nc(NCCC(C)C)nc(N)c2[N+](=O)[O-])c1
Cells [7]
  EC50: > 350 µM (not active)
Cells [8]
  EC50: > 350 µM (not active)

## CCN(CC)S(=O)(=O)c1ccc(C)c(NC(=S)N2CCN(C/C=C/c3ccccc3)CC2)c1
[4]
  AC50: 2.55 µM (active)
[5]
  AC50: 67.5 µM (active)
[10]
  AC50: 2.53 µM (active)

## CCOc1ccc(C2N(c3ccc(F)cc3)C(=O)C3CCCN32)cc1OC (stereo not given)
[6]
  EC50: > 195 µM (not active)

## COc1ccc(OCC(=O)NNC(=S)NC(=O)c2ccc(Br)o2)cc1
[4]
  AC50: 5.27 µM (active)
[5]
  AC50: > 70 µM (inactive)
[10]
  AC50: 12.4 µM (active)

## Cc1c(C(=O)NCc2ccc3c(c2)OCO3)oc2ccc(Br)cc12
[9]
  CC50: 19.1 µM (active)

## CCCCN(C(=O)c1ccc([N+](=O)[O-])s1)c1c(N)n(CCCC)c(=O)[nH]c1=O
[6]
  EC50: > 195 µM (not active)

## CC(=O)c1c(N2CCN(CCO)CC2)nc(=S)n(-c2ccccc2)c1C
[6]
  EC50: > 195 µM (not active)

## COc1cc(C(=O)NC2CCCc3c2cnn3-c2ccccc2F)cc(OC)c1OC (stereo not given)
[4]
  AC50: 0.781 µM (active)
[5]
  AC50: 6.29 µM (active)
[10]
  AC50: 4.13 µM (active)

## CCOc1ccc(Oc2nc(NCC(C)C)nc(N(C)C)n2)nn1
[1]
  EC50: 115 µM (active)
[2]
  EC50: > 120 µM (not active)
[3]
  EC50: > 120 µM (not active)

## CO/C(O)=C1/C(C)=Nc2c(c(=O)n(C)c(=O)n2C)C1c1cccc(O)c1 (stereo not given)
[6]
  EC50: 27.8 µM (active)

## COC(=O)C1=C(N)Oc2cc(N(C)C)ccc2C1c1ccccc1OC (stereo not given)
[1]
  EC50: 11.3 µM (active)
[3]
  EC50: 6.94 µM (active)

## CCCC(=O)C1=C(NCc2ccccc2)CC(C)(C)CC1=O
Cells [7]
  EC50: > 350 µM (not active)
Cells [8]
  EC50: > 350 µM (not active)

## CCO[C@@H]1OC(C(=O)NCc2ccccc2)=C[C@H](c2ccc3c(c2)OCO3)[C@H]1CCCO
[6]
  EC50: > 195 µM (not active)

## CCOC(=O)c1c(N)n(CCCOC(=O)c2ccco2)c2nc3ccccc3nc12
[1]
  EC50: > 120 µM (not active)
[2]
  EC50: > 120 µM (not active)
[3]
  EC50: 8.24 µM (active)

## Cc1c(C(=O)C(=O)NCc2cccs2)c2ccccc2n1C
[6]
  EC50: > 195 µM (not active)

## Cc1cc(C)[n+](Cc2ccccc2)cc1C(N)=O
Cells [7]
  EC50: > 350 µM (not active)
Cells [8]
  EC50: > 350 µM (not active)

## O=S(=O)(c1ccc2c(c1)OCCO2)N1CCC(c2nc(O)c3nnn(Cc4cccc(F)c4)c3n2)CC1
[9]
  CC50: 31.9 µM (active)

## CN(Cc1ccccc1)C(=O)c1cccc(NC(=O)Cc2ccc([N+](=O)[O-])cc2)c1
[4]
  AC50: 16.8 µM (active)
[5]
  AC50: > 70 µM (inactive)

## O=C(Nc1ccc(F)cc1)c1cccnc1
INS1
  AC50: 14.5 µM (active)

## O=S(=O)(c1ccccc1F)N1CC[C@@H]2[C@@H](CO)Nc3ccc(C4=CCCCC4)cc3[C@@H]21
Paired box protein Pax-8
  AC50: 10.5 µM (active)

## COc1ccc(OC)c(-c2cc(C(=O)N/N=C/c3cc(OC)c(OC)cc3OC)c3ccccc3n2)c1
[6]
  EC50: > 195 µM (not active)

## C/C(=N\NC1=NCCN1)c1ccc(N)c([N+](=O)[O-])c1
[6]
  EC50: > 195 µM (not active)

## O=C(O)COc1ccccc1/C=N/NC(=O)c1ccc2c(c1)OCCO2
[6]
  EC50: > 195 µM (not active)

## Cn1/c(=N/C(=O)C2CCCCC2)sc2cc([N+](=O)[O-])ccc21
[9]
  CC50: > 50 µM (active)

From ChEMBL document CHEMBL1201862, “PubChem BioAssay data set” (2004)
